Test results from patent US20260295053A1, “COMPOUNDS FOR DEGRADATION AND INHIBITION OF KRAS (G12D) PROTEIN” (Shenzhen Ionova Life Science Co., Ltd., priority 2023, published 2026).

Tests used:
KRAS (G12D) = biological target: T1, KRAS (G12D) (Homo sapiens, UniProt P01116, G12D); experiment: KRAS (G12D) cellular degradation assay in AsPC-1 cells; assay type: cell-based; conditions: 24 hours, antibody fluorescence (Odyssey CLX), DC50 half-maximal degradation concentration
T1 construct: in-cell western with KRAS G12D antibody after 24 h
Procedure, shortened: (§1)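 Half-maximal degradation (DC50) and inhibition (IC50) concentrations are fitted from dose-response curves spanning […] to 1.5 nM final. KRAS G12D loss is measured by fluorescent antibody staining with β-actin reference after 24 h; growth is measured by ATP luminescence after a 6-day exposure.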

AsPC-1 cells = experiment: AsPC-1 cell proliferation assay (CellTiter Glo); assay type: cell-based; conditions: 6 days
Procedure, shortened: as §1

T1 sequence (P01116 1-188 isoform P01116-2 G12D): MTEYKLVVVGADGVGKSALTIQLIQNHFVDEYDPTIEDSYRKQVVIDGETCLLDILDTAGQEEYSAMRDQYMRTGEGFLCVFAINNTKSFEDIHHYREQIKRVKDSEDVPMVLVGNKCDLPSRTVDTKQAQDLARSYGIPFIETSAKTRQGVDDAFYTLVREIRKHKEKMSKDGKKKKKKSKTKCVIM

SMILES | DC50 (KRAS (G12D)) | IC50 (AsPC-1 cells; Homo sapiens, ASPC1, 144 h) | IC50 (AsPC-1 cells)
CO[C@H]1C[C@H](Oc2nc(N(C)[C@H]3CCNC3)c3cc(C4CC4)c(-c4c(C)c(F)cc5[nH]ncc45)c(OCc4ccc(-c5cn([C@H](C(=O)N6C[C@H](O)C[C@H]6C(=O)N[C@@H](CO)c6ccc(-c7scnc7C)cc6)C(C)C)nn5)cc4)c3n2)C1 [Example 166, (2S,4R)-1-((2S)-2-(4-(4-(((6-cyclopropyl-7-(6-fluoro-5-methyl-1H-indazol-4-yl)-2-((1r,3S)-3-methoxycyclobutoxy)-4-(methyl((S)-pyrrolidin-3-yl)amino)quinazolin-8-yl)oxy)methyl)phenyl)-1H-1,2,3-triazol-1-yl)-3-methylbutanoyl)-4-hydroxy-N—((R)-2-hydroxy-1-(4-(4-methylthiazol-5-yl)phenyl)ethyl)pyrrolidine-2-carboxamide] | < 10 nM | < 10 nM | 
CCn1nccc1-c1ccc([C@@H](NC(=O)[C@@H]2C[C@@H](O)CN2C(=O)[C@H](C(C)C)n2cc(-c3ccc(COc4c(-c5c(C)c(F)cc6[nH]ncc56)c(C5CC5)cc5c(N6C[C@@H]7C[C@H]6CN7)nc(O[C@H]6C[C@H](OC)C6)nc45)cc3)nn2)[C@H](C)O)cc1 [Example 109, (2S,4R)-1-((2S)-2-(4-(4-(((4-((1S,4S)-2,5-diazabicyclo[2.2.1]heptan-2-yl)-6-cyclopropyl-7-(6-fluoro-5-methyl-1H-indazol-4-yl)-2-((1r,3S)-3-methoxycyclobutoxy)quinazolin-8-yl)oxy)methyl)phenyl)-1H-1,2,3-triazol-1-yl)-3-methylbutanoyl)-N-((1R,2S)-1-(4-(1-ethyl-1H-pyrazol-5-yl)phenyl)-2-hydroxypropyl)-4-hydroxypyrrolidine-2-carboxamide] | < 10 nM | < 10 nM | 
CO[C@@H](C)COc1nc(N2C[C@H]3C[C@@H]2CN3)c2cc(C3CC3)c(-c3c(C)c(F)cc4n[nH]cc34)c(OCc3ccc(-c4cn([C@H](C(=O)N5C[C@H](O)C[C@H]5C(=O)N[C@@H](CO)c5ccc(-c6c(C)noc6C)cc5)C(C)C)nn4)cc3)c2n1 (single isomer, unassigned) [Example 6A] | 10 to 100 nM | 10 to 100 nM | 
CO[C@@H](C)COc1nc(N(C)[C@H]2CCNC2)c2cc(C3CC3)c(-c3c(C)c(F)cc4[nH]ncc34)c(OCc3ccc(-c4cn([C@H](C(=O)N5C[C@H](O)C[C@H]5C(=O)N[C@H](c5ccc(-c6scnc6C)cc5)[C@H](C)O)C(C)C)nn4)cc3)c2n1 [Example 144, (2S,4R)-1-((2S)-2-(4-(4-(((6-cyclopropyl-7-(6-fluoro-5-methyl-1H-indazol-4-yl)-2-((S)-2-methoxypropoxy)-4-(methyl((S)-pyrrolidin-3-yl)amino)quinazolin-8-yl)oxy)methyl)phenyl)-1H-1,2,3-triazol-1-yl)-3-methylbutanoyl)-4-hydroxy-N-((1R,2S)-2-hydroxy-1-(4-(4-methylthiazol-5-yl)phenyl)propyl)pyrrolidine-2-carboxamide] | > 1000 nM |  | > 1000 nM
CCn1nccc1-c1ccc([C@H](CO)NC(=O)[C@@H]2C[C@@H](O)CN2C(=O)[C@H](C(C)C)n2cc(-c3ccc(COc4c(-c5c(C)c(F)cc6[nH]ncc56)c(C5CC5)cc5c(N6C[C@@H]7C[C@H]6CN7)nc(OC6CCC7(CC6)COC7)nc45)cc3)nn2)cc1 [Example 43, (2S,4R)-1-((2S)-2-(4-(4-(((2-((2-oxaspiro[3.5]nonan-7-yl)oxy)-4-((1S,4S)-2,5-diazabicyclo[2.2.1]heptan-2-yl)-6-cyclopropyl-7-(6-fluoro-5-methyl-1H-indazol-4-yl)quinazolin-8-yl)oxy)methyl)phenyl)-1H-1,2,3-triazol-1-yl)-3-methylbutanoyl)-N—((R)-1-(4-(1-ethyl-1H-pyrazol-5-yl)phenyl)-2-hydroxyethyl)-4-hydroxypyrrolidine-2-carboxamide] | < 10 nM | < 10 nM | 
CO[C@@H](C)COc1nc(N(C)[C@@H]2CCNC2)c2cc(C3CC3)c(-c3c(C)c(F)cc4[nH]ncc34)c(OCc3ccc(-c4cn([C@H](C(=O)N5C[C@H](O)C[C@H]5C(=O)N[C@H](c5ccc(-c6scnc6C)cc5)[C@H](C)O)C(C)C)nn4)cc3)c2n1 [Example 187, (2S,4R)-1-((2S)-2-(4-(4-(((6-cyclopropyl-7-(6-fluoro-5-methyl-1H-indazol-4-yl)-2-((S)-2-methoxypropoxy)-4-(methyl((R)-pyrrolidin-3-yl)amino)quinazolin-8-yl)oxy)methyl)phenyl)-1H-1,2,3-triazol-1-yl)-3-methylbutanoyl)-4-hydroxy-N-((1R,2S)-2-hydroxy-1-(4-(4-methylthiazol-5-yl)phenyl)propyl)pyrrolidine-2-carboxamide] | < 10 nM | < 10 nM | 

Other lines, results leading:

DC50 (KRAS (G12D)) | IC50 (AsPC-1 cells; Homo sapiens, ASPC1, 144 h) | IC50 (AsPC-1 cells) | SMILES
< 10 nM | < 10 nM |  | CCn1nccc1-c1ccc([C@H](CO)NC(=O)[C@@H]2C[C@@H](O)CN2C(=O)[C@H](C(C)C)n2cc(-c3ccc(COc4c(-c5c(C)c(F)cc6[nH]ncc56)c(C5CC5)cc5c(N6C[C@@H]7C[C@H]6CN7)nc(OCC(OC)C(F)(F)F)nc45)cc3)nn2)cc1 (stereo partly drawn) [Example 48, (2S,4R)-1-((2S)-2-(4-(4-(((4-((1S,4S)-2,5-diazabicyclo[2.2.1]heptan-2-yl)-6-cyclopropyl-7-(6-fluoro-5-methyl-1H-indazol-4-yl)-2-(3,3,3-trifluoro-2-methoxypropoxy)quinazolin-8-yl)oxy)methyl)phenyl)-1H-1,2,3-triazol-1-yl)-3-methylbutanoyl)-N—((R)-1-(4-(1-ethyl-1H-pyrazol-5-yl)phenyl)-2-hydroxyethyl)-4-hydroxypyrrolidine-2-carboxamide]
< 10 nM | < 10 nM |  | CCn1nccc1-c1ccc([C@H](CO)NC(=O)[C@@H]2C[C@@H](O)CN2C(=O)[C@H](C(C)C)n2cc(-c3ccc(COc4c(-c5c(C)c(F)cc6[nH]ncc56)c(C5CC5)cc5c(N6C[C@@H]7C[C@H]6CN7)nc(OC(COC)C(F)F)nc45)cc3)nn2)cc1 (stereo partly drawn) [Example 83, (2S,4R)-1-((2S)-2-(4-(4-(((4-((1S,4S)-2,5-diazabicyclo[2.2.1]heptan-2-yl)-6-cyclopropyl-2-((1,1-difluoro-3-methoxypropan-2-yl)oxy)-7-(6-fluoro-5-methyl-1H-indazol-4-yl)quinazolin-8-yl)oxy)methyl)phenyl)-1H-1,2,3-triazol-1-yl)-3-methylbutanoyl)-N—((R)-1-(4-(1-ethyl-1H-pyrazol-5-yl)phenyl)-2-hydroxyethyl)-4-hydroxypyrrolidine-2-carboxamide]
< 10 nM | < 10 nM |  | CCn1nccc1-c1ccc([C@H](CO)NC(=O)[C@@H]2C[C@@H](O)CN2C(=O)[C@H](C(C)C)n2cc(-c3ccc(COc4c(-c5c(C)c(F)cc6[nH]ncc56)c(C5CC5)cc5c(N6C[C@@H]7C[C@H]6CN7)nc(OC6CCC(OC)C6)nc45)cc3)nn2)cc1 (stereo partly drawn) [Example 86, (2S,4R)-1-((2S)-2-(4-(4-(((4-((1S,4S)-2,5-diazabicyclo[2.2.1]heptan-2-yl)-6-cyclopropyl-7-(6-fluoro-5-methyl-1H-indazol-4-yl)-2-((3-methoxycyclopentyl)oxy)quinazolin-8-yl)oxy)methyl)phenyl)-1H-1,2,3-triazol-1-yl)-3-methylbutanoyl)-N—((R)-1-(4-(1-ethyl-1H-pyrazol-5-yl)phenyl)-2-hydroxyethyl)-4-hydroxypyrrolidine-2-carboxamide]
< 10 nM | < 10 nM |  | CO[C@@H](C)COc1nc(N2C[C@@H]3C[C@H]2CN3)c2cc(C3CC3)c(-c3c(C)c(F)cc4[nH]ncc34)c(OCc3ccc(-c4cn([C@H](C(=O)N5C[C@H](O)C[C@H]5C(=O)N[C@H](C#Cc5ccc6nc(N)sc6c5)CO)C(C)C)nn4)cc3)c2n1 [Example 111, (2S,4R)-1-((2S)-2-(4-(4-(((4-((1S,4S)-2,5-diazabicyclo[2.2.1]heptan-2-yl)-6-cyclopropyl-7-(6-fluoro-5-methyl-1H-indazol-4-yl)-2-((S)-2-methoxypropoxy)quinazolin-8-yl)oxy)methyl)phenyl)-1H-1,2,3-triazol-1-yl)-3-methylbutanoyl)-N—((R)-4-(2-aminobenzo[d]thiazol-6-yl)-1-hydroxybut-3-yn-2-yl)-4-hydroxypyrrolidine-2-carboxamide]
< 10 nM | < 10 nM |  | CCn1nccc1-c1ccc([C@@H](NC(=O)[C@@H]2C[C@@H](O)CN2C(=O)[C@H](C(C)C)n2cc(-c3ccc(COc4c(-c5c(C)c(F)cc6[nH]ncc56)c(C5CC5)cc5c(N6CCCNCC6)nc(OC[C@H](C)OC)nc45)cc3)nn2)[C@H](C)O)cc1 [Example 184, (2S,4R)-1-((2S)-2-(4-(4-(((6-cyclopropyl-4-(1,4-diazepan-1-yl)-7-(6-fluoro-5-methyl-1H-indazol-4-yl)-2-((S)-2-methoxypropoxy)quinazolin-8-yl)oxy)methyl)phenyl)-1H-1,2,3-triazol-1-yl)-3-methylbutanoyl)-N-((1R,2S)-1-(4-(1-ethyl-1H-pyrazol-5-yl)phenyl)-2-hydroxypropyl)-4-hydroxypyrrolidine-2-carboxamide]
< 10 nM | < 10 nM |  | CCn1nccc1-c1ccc([C@H](CO)NC(=O)[C@@H]2C[C@@H](O)CN2C(=O)[C@H](C(C)C)n2cc(-c3ccc(COc4c(-c5c(C)c(F)cc6[nH]ncc56)c(C5CC5)cc5c(N6C[C@@H]7C[C@H]6CN7)nc(OC6CCN(S(C)(=O)=O)CC6)nc45)cc3)nn2)cc1 [Example 38, (2S,4R)-1-((2S)-2-(4-(4-(((4-((1S,4S)-2,5-diazabicyclo[2.2.1]heptan-2-yl)-6-cyclopropyl-7-(6-fluoro-5-methyl-1H-indazol-4-yl)-2-((1-(methylsulfonyl)piperidin-4-yl)oxy)quinazolin-8-yl)oxy)methyl)phenyl)-1H-1,2,3-triazol-1-yl)-3-methylbutanoyl)-N—((R)-1-(4-(1-ethyl-1H-pyrazol-5-yl)phenyl)-2-hydroxyethyl)-4-hydroxypyrrolidine-2-carboxamide]
